Data published in patent publication US9828378B2, “Kinase inhibitors and methods of use” (Intellikine LLC, priority 2008, dated 2017).
Read-outs that look alike come from different tables or passages of the source.

Tests used:
PC3 = test: Tumor cell line proliferation assay (Alamar Blue); format: cell-based; conditions: Homo sapiens, PC-3
Experimental: The ability of one or more subject compounds to inhibit tumor cell line proliferation is determined according to standard procedures known in the art. For instance, an in vitro cellular proliferation assay can be performed to measure the metabolic activity of live cells. The assay is performed in a 96 well microtiter plate using Alamar Blue reduction. […] A compound disclosed herein is diluted in Tumor Cell Media and added in a 10 ul volume. […] A volume of 10 uL of Alamar Blue reagent is added to each well and plates are incubated for 3 hours at 37 C and 5% CO2. Alamar Blue fluoresce is read at 560Ex/590Em, and IC50 values are calculated using GraphPad Prism 5.

B6.Sle1z.Sle3z model = conditions: cited from earlier work
[1] = PBS pH 7.4, 24 hours, 37 C; cited from earlier work
PI3K/Akt/mTor signaling = test: Kinase signaling in blood (phosflow); format: cell-based; conditions: anti-CD3 stimulation
Experimental: PI3K/Akt/mTor signaling is measured in blood cells using the phosflow method (Methods Enzymol. 2007; 434:131-54). The advantage of this method is that it is by nature a single cell assay so that cellular heterogeneity can be detected rather than population averages. This allows concurrent dinstinction of signaling states in different populations defined by other markers. Phosflow is also highly quantitative. To test the effects of the inhibitors disclosed herein, unfractionated splenocytes, or peripheral blood mononuclear cells are stimulated with anti-CD3 to initiate T-cell receptor signaling. The cells are then fixed and stained for surface markers and intracellular phosphoproteins.
Similarly, aliquots of whole blood are incubated for 15 minutes with vehicle (e.g. 0.1% DMSO) or kinase inhibitors at various concentrations, before addition of stimuli to crosslink the T cell receptor (TCR) (anti-CD3 with secondary antibody) or the B cell receptor (BCR) using anti-kappa light chain antibody (Fab′2 fragments). After approximately 5 and 15 minutes, samples are fixed (e.g. with cold 4% paraformaldehyde) and used for phosflow. […] The level of phosphrylation of kinase substrates such as Akt and S6 are then measured by incubating the fixed cells with labeled antibodies specific to the phosphorylated isoforms of these proteins. The population of cells are then analyzed by flow cytometery. […]

PI3K δ = PI3K δ (Homo sapiens (Human), UniProt O00329); test: PI3K δ inhibition assay; format: biochemical; conditions: Table 2; compound numbers of Table 3; read-out: IC50 results PI3K delta
Sequence of PI3K δ (O00329 whole entry): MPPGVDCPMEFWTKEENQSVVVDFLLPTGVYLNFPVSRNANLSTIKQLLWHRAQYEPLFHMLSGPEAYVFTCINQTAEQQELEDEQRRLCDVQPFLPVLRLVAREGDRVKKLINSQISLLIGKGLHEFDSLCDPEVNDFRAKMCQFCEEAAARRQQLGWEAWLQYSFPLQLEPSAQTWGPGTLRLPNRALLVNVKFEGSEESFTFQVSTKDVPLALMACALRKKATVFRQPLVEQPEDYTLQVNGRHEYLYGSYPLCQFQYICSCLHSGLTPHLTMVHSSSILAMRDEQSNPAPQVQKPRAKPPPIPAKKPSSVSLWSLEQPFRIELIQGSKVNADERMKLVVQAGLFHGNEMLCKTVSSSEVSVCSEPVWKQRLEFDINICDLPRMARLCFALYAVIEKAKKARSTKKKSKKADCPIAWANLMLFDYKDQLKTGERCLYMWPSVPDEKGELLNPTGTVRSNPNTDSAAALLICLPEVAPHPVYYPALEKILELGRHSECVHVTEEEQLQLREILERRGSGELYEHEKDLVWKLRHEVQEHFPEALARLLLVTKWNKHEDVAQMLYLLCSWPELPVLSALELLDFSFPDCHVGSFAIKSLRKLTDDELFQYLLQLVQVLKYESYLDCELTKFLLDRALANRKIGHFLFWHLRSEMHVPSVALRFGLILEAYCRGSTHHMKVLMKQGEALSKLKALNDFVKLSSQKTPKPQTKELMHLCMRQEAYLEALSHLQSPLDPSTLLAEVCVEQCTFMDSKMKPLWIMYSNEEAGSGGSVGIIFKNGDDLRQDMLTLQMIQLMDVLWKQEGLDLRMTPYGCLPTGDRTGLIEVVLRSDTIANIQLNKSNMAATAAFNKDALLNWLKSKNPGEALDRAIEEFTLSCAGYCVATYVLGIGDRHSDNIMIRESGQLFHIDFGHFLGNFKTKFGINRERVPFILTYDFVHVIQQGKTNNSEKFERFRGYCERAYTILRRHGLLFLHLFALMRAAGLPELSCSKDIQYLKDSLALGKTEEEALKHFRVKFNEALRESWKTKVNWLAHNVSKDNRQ
Sequence of PI3K δ (P27986 whole entry partner): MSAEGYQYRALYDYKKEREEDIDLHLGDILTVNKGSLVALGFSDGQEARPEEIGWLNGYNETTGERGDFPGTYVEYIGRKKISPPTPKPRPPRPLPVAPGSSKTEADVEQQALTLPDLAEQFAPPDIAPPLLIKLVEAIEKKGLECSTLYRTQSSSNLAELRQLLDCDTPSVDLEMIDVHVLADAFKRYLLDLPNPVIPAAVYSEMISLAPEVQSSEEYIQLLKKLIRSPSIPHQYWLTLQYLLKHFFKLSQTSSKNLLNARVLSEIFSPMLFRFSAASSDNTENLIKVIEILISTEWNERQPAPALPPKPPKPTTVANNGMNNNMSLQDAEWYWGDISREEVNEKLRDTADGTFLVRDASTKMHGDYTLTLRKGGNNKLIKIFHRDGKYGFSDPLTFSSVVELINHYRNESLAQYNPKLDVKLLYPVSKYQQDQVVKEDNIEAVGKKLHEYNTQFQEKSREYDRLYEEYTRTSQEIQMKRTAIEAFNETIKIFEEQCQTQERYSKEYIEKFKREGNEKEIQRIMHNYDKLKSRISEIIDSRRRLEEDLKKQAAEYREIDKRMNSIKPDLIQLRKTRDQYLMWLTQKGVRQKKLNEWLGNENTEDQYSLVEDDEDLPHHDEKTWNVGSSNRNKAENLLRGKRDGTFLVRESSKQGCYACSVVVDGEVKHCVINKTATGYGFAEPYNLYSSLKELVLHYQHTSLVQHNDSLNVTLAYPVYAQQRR
Experimental: (§1) IC50 values are measured using either a standard TLC assay for lipid kinase activity (described below) or a high-throughput membrane capture assay. Kinase reactions are performed by preparing a reaction mixture containing kinase, inhibitor (2% DMSO final concentration), buffer (25 mM HEPES, pH 7.4, 10 mM MgCl2), and freshly sonicated phosphatidylinositol (100 μg/ml). Reactions are initiated by the addition of ATP containing 10 μCi of γ-32P-ATP to a final concentration 10 or 100 μM and allowed to proceed for 5 minutes at room temperature. For TLC analysis, reactions are then terminated by the addition of 105 μl 1N HCl followed by 160 μl CHCl3:MeOH (1:1). The biphasic mixture is vortexed, briefly centrifuged, and the organic phase is transferred to a new tube using a gel loading pipette tip precoated with CHCl3. […] The TLC plates are then dried, exposed to a phosphorimager screen (Storm, Amersham), and quantitated.
(§2) Briefly, the assay is a time resolved FRET assay that indirectly measures PIP3 product formed by the activity of a PI3-K. The kinase reaction is performed in a microtitre plate (e.g., a 384 well microtitre plate). The total reaction volume is approximately 20 ul per well. In the first step, each well receives 2 ul of test compound in 20% dimethylsulphoxide resulting in a 2% DMSO final concentration. Next, approximately 14.5 ul of a kinase/PIP2 mixture (diluted in 1× reaction buffer) is added per well for a final concentration of 0.25-0.3 ug/ml kinase and 10 uM PIP2. The plate is sealed and incubated for 15 minutes at room temperature. To start the reaction, 3.5 ul of ATP (diluted in 1× reaction buffer) is added per well for a final concentration of 10 uM ATP. The plate is sealed and incubated for 1 hour at room temperature. The reaction is stopped by adding 5 ul of Stop Solution per well and then 5 ul of Detection Mix is added per well. The plate is sealed, incubated for 1 hour at room temperature, and then read on an appropriate plate reader. Data is analyzed and IC50s are generated using GraphPad Prism 5.

mTORC = mTORC (Homo sapiens (Human), UniProt P42345); test: mTOR kinase inhibition assay; format: biochemical; conditions: Table 2; compound numbers of Table 3; read-out: IC50 results mTORC
Experimental: The compounds described herein can be tested against recombinant mTOR (Invitrogen) in an assay containing 50 mM HEPES, pH 7.5, 1 mM EGTA, 10 mM MgCl2, 2.5 mM, 0.01% Tween, 10 μM ATP (2.5 μCi of p-32P-ATP), and 3 μg/mL BSA. Rat recombinant PHAS-1/4EBP1 (Calbiochem; 2 mg/mL) is used as a substrate. Reactions are terminated by spotting onto nitrocellulose, which is washed with 1M NaCl/1% phosphoric acid (approximately 6 times, 5-10 minutes each). Sheets are dried and the transferred radioactivity quantitated by phosphorimaging.
For instance, one can use Invitrogen's LanthaScreen™ Kinase assay to test the inhibitors of mTOR disclosed herein. This assay is a time resolved FRET platform that measures the phosphorylation of GFP labeled 4EBP1 by mTOR kinase. The kinase reaction is performed in a white 384 well microtitre plate. The total reaction volume is 20 ul per well and the reaction buffer composition is 50 mM HEPES pH7.5, 0.01% Polysorbate 20, 1 mM EGTA, 10 mM MnCl2, and 2 mM DTT. In the first step, each well receives 2 ul of test compound in 20% dimethylsulphoxide resulting in a 2% DMSO final concentration. Next, 8 ul of mTOR diluted in reaction buffer is added per well for a 60 ng/ml final concentration. To start the reaction, 10 ul of an ATP/GFP-4EBP1 mixture (diluted in reaction buffer) is added per well for a final concentration of 10 uM ATP and 0.5 uM GFP-4EBP1. The plate is sealed and incubated for 1 hour at room temperature. […] The plate is sealed, incubated for 1 hour at room temperature, and then read on a plate reader set up for LanthaScreen™ TR-FRET. Data is analyzed and IC50s are generated using GraphPad Prism 5.

PI3K α = PI3K α (Homo sapiens (Human), UniProt P42336); test: PI3K α inhibition assay; format: biochemical; conditions: Table 2; compound numbers of Table 3; read-out: IC50 results PI3K alpha
Sequence of PI3K α (P42336 whole entry): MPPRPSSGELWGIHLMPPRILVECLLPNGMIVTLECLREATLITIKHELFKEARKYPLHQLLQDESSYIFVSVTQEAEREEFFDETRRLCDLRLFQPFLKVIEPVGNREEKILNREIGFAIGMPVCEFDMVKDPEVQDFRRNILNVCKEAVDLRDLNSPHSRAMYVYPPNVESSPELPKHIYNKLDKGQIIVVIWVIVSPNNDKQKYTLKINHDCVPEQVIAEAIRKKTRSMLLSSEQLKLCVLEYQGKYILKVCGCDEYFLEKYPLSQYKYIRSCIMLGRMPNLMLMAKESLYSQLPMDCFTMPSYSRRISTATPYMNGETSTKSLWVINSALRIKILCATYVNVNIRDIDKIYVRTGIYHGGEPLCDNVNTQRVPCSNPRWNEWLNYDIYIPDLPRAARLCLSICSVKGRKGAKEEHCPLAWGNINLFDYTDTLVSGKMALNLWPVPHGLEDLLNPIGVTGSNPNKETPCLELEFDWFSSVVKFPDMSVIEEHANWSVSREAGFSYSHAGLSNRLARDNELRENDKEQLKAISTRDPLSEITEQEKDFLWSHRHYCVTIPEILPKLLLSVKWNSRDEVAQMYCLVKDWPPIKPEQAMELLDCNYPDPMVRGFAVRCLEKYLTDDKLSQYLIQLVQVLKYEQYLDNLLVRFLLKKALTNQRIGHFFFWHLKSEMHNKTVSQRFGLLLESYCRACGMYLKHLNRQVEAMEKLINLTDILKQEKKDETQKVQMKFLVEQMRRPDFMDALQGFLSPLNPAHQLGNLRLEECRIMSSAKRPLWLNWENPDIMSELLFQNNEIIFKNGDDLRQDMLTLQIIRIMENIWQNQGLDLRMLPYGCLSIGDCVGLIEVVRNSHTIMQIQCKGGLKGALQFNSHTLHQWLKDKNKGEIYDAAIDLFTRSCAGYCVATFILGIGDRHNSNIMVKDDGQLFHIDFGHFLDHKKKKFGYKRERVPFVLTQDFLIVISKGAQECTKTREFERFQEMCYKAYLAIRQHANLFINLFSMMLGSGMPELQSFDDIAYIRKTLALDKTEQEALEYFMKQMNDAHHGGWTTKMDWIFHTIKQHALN
Sequence of PI3K α (P27986 whole entry partner): as the sequence (P27986 whole entry partner) above
Experimental: as §1, §2

PI3K γ = PI3K γ (Homo sapiens (Human), UniProt P48736); test: PI3K γ inhibition assay; format: biochemical; conditions: Table 2; compound numbers of Table 3; read-out: IC50 results PI3K gamma
Sequence of PI3K γ (P48736 whole entry): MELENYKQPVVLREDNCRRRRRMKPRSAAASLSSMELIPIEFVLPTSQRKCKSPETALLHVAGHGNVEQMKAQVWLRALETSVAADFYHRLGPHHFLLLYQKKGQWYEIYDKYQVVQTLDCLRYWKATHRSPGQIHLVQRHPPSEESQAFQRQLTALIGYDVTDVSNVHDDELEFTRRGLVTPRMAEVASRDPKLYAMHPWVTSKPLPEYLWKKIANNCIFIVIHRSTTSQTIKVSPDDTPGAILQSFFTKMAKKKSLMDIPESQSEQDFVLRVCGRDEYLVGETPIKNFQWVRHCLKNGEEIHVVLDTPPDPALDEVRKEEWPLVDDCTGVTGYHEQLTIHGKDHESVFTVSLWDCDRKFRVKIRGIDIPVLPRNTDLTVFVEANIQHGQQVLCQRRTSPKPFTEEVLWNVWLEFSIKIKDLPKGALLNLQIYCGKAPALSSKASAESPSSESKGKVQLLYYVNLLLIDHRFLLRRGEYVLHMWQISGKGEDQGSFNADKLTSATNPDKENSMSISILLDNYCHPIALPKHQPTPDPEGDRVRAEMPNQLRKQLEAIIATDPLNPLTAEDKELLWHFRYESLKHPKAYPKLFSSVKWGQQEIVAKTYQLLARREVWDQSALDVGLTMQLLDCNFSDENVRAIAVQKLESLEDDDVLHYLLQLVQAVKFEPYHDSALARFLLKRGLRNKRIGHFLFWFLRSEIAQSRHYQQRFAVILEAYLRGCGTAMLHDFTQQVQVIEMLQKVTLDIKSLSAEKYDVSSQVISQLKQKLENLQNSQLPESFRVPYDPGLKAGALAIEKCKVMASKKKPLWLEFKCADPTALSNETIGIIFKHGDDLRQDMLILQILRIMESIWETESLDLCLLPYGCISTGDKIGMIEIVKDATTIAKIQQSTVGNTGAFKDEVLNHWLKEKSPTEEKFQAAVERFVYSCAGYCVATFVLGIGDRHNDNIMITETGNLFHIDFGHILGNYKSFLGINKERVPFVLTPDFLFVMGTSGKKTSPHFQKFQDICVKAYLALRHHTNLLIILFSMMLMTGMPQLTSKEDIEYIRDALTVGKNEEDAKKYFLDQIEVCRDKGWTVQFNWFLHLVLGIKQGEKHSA
Experimental: as §1, §2

PI3K β = PI3K β (Homo sapiens (Human), UniProt P42338); test: PI3K β inhibition assay; format: biochemical; conditions: Table 2; compound numbers of Table 3; read-out: IC50 results PI3K beta
Sequence of PI3K β (P42338 whole entry): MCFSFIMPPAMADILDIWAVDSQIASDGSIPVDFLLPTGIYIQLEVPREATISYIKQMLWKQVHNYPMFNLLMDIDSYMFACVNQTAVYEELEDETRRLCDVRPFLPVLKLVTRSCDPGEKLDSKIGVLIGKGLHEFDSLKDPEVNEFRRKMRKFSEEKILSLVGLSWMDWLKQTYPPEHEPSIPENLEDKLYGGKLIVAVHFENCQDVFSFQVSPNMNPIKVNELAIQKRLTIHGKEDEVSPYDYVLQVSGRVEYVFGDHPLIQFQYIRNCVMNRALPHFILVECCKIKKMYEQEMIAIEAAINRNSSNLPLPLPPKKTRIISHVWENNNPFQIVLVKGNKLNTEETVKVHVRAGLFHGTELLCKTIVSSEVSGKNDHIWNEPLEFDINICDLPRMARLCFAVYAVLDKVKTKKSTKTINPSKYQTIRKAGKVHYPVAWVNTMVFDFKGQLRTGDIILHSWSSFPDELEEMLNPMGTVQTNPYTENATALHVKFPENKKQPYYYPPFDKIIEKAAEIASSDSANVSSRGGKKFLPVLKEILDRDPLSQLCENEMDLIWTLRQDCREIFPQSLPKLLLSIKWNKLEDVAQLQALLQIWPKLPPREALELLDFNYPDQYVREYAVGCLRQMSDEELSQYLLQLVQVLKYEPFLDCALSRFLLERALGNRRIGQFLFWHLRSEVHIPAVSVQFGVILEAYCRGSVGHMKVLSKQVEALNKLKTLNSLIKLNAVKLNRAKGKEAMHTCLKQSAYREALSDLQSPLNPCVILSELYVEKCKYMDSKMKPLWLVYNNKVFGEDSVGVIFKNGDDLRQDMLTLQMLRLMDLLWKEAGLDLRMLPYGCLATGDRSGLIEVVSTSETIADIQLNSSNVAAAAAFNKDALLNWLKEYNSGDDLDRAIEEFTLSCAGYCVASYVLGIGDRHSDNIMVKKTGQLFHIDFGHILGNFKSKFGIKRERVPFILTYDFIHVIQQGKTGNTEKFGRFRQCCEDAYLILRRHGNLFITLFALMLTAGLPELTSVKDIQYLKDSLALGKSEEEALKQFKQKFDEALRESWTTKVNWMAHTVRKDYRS
Sequence of PI3K β (P27986 whole entry partner): as the sequence (P27986 whole entry partner) above
Experimental: as §1, §2

[2] = tested on: leukemic cells from p190 transduced cultures; conditions: about 70 mg/kg twice daily; cited from earlier work

## CC(C)n1nc(-c2cc3c(Cl)c(O)ccc3[nH]2)c2c(N)ncnc21 [Compound 22]
PC3; Table 1, PC3 cells, read-out: PC3 proliferation
  IC50: < 500 nM

## CO[C@H]1C[C@@H]2CC[C@@H](C)[C@@](O)(O2)C(=O)C(=O)N2CCCC[C@H]2C(=O)O[C@H]([C@H](C)C[C@@H]2CC[C@@H](OCCO)[C@H](OC)C2)CC(=O)[C@H](C)/C=C(\C)[C@@H](O)[C@@H](OC)C(=O)[C@H](C)C[C@H](C)/C=C/C=C/C=C/1C [RAD001]
B6.Sle1z.Sle3z model
  lupus symptoms: ameliorate lupus symptoms

## O=C(O)CCCc1ccc(N(CCCl)CCCl)cc1 [chlorambucil]
[1]
  chemical stability: largely hydrolyzed over the course of 24 hours

## CO[C@H]1C[C@@H]2CC[C@@H](C)[C@@](O)(O2)C(=O)C(=O)N2CCCC[C@H]2C(=O)O[C@H]([C@H](C)C[C@@H]2CC[C@@H](O)[C@H](OC)C2)CC(=O)[C@H](C)/C=C(\C)[C@@H](O)[C@@H](OC)C(=O)[C@H](C)C[C@H](C)/C=C/C=C/C=C/1C [rapamycin]
PI3K/Akt/mTor signaling
  Akt phosphorylation: enhances
  S6 phosphorylation: inhibits

## CNC(=O)Nc1nc2ccc(-c3nn(C4CCN(C(C)=O)CC4)c4ncnc(N)c34)cc2s1 [Compound 23]
PI3K δ
  IC50: ≤ 50 nM
mTORC
  IC50: ≤ 50 nM
PI3K α
  IC50: ≤ 50 nM
PI3K γ
  IC50: ≤ 50 nM
PI3K β
  IC50: ≤ 100 nM
PC3; Table 2, compound numbers of Table 3, read-out: IC50 results PC3 proliferation
  IC50: > 1000 nM

## Cc1ccc(NC(=O)c2ccc(CN3CCN(C)CC3)cc2)cc1Nc1nccc(-c2cccnc2)n1 [imatinib]
[2]
  leukemogenesis: delay but not cure leukemogenesis
